According to US20250223366A1, “MONOCLONAL ANTIBODIES AND BISPECIFIC ANTIBODY AGAINST C-MET” (BIOTHEUS INC., priority 2022, published 2025):

What was measured:
[1] = tested on: H292 human lung cancer tumor cells; assay: Experimental Model 4: H292 tumor-bearing model, comparison with Rybrevant; type: in vivo, CB-17 SCID mice; settings: H292, single dose Day 14: 10 mg/kg; last measured 27 days after inoculation
Excerpt: In this experiment, CB-17 SCID mice were subcutaneously inoculated with H292 human lung cancer tumor cells to establish a tumor-bearing model, and the anti-EGFRxc-Met bispecific antibody was compared with the commercially available EGFRxc-Met bispecific antibody Rybrevant (purchased from Johnson & Johnson, batch number: LHS3G02) (this antibody had been published at various oncology conferences and was also known as JNJ-6372) in terms of anti-tumor effect. The mouse model establishment process was the same as that of Experimental Model 1. The groups were divided according to the grouping and dosing scheme in Table 9 and the corresponding doses of antibodies were injected.
The tumor volume and body weight of the mice were measured 2 to 3 times a week. The weight and tumor volume of the mice were measured for the last time 27 days after the inoculation of tumor cells, and the mice were euthanized.

[2] = tested on: H1975-HGF human lung cancer cells; assay: Experimental Model 5: H1975-HGF tumor-bearing model, combination with Osimertinib; type: in vivo, CB-17 SCID mice; settings: antibody Day 16 and Day 18: 3 mg/kg, Osimertinib Days 16 to 22: 3 mg/kg/day, last measured 28 days after inoculation
Excerpt: In this experiment, the in vivo efficacy of the bispecific antibody of the present application in combination with an small molecule EGFR inhibitor (e.g., Osimertinib) was detected. Using the lentiviral transfection method, the cDNA encoding human HGF (hepatocyte growth factor) (the sequence was from UniProtKB P14210) was constructed on the pLVX-neu vector by General Biol, and the plasmid was transfected into H1975 cells to construct a cell line ([…]) with stable expression of HGF. In this experiment, CB-17 SCID mice were subcutaneously inoculated with H1975-HGF human lung cancer cells to establish a tumor-bearing model and determine the anti-tumor effect of the anti-EGFRxc-Met bispecific antibody. The model construction process was the same as that of Experimental Model 2. The mice were divided into groups according to the grouping and dosing scheme in Table 10 and the corresponding doses of antibodies were injected.
The tumor volume and body weight of mice were measured 2 to 3 times a week. The body weight and tumor volume of mice were measured for the last time 28 days after the tumor cell inoculation, and then the mice were euthanized.

HepG2 cells = assay: Blocking HGF-induced migration of HepG2 cells; type: cell-based, human; settings: HGF in lower chamber, 3 days, FIG. 6
Excerpt: HepG2 cells were human liver cancer cells and purchased from ATCC, which were capable of expressing EGFR and c-Met receptors. When HGF was placed in the lower chamber culture medium, it would induce HepG2 cells in the upper chamber to migrate to the lower chamber through the filter membrane. The specific experimental method was as follows: HepG2 cells were expanded to an appropriate density, the cells were digested and detached from the cell culture flask, resuspended to 1×10^6 cells/ml, and added to the upper chamber of the 24-well cell migration plate (purchased from Corning) at 100 μL per well for later use. The bispecific antibody was diluted to 200 nM with MEM, added to the upper chamber of the 24-well cell migration plate at 100 μL per well, and incubated at 25° C. for 60 min. h.HGF (purchased from R&D) was diluted to 50 ng/mL with MEM, added to the lower chamber of the cell migration plate at 500 μL/well, and cultured for 3 days at 37° C. and 5% carbon dioxide. The non-migrated cells on the upper chamber membrane were gently wiped with cotton swabs, the cells that migrated to the lower chamber membrane were lysed with Cell titer glo (purchased from Promega), and the chemiluminescent signal was collected with an microplate plate reader.

[3] = target: T1, EGFR which expressed on H292 cells (Homo sapiens, UniProt P00533); assay: Blocking EGF-EGFR interaction on H292 cells (flow cytometry, Biotin-h.EGF); type: cell-based; settings: negative controls, FIG. 3
T1 construct: H292 cells, which were human non-small cell lung cancer cells purchased from Procell, were capable of expressing EGFR and c-Met receptors; host or cells: H292 cells
Description: H292 cells, which were human non-small cell lung cancer cells purchased from Procell, were capable of expressing EGFR and c-Met receptors. H292 cells were expanded to a suitable density, digested and detached from the cell culture flask, resuspended to 1×10^6 cells/ml, added to a 96-well flow plate, 100 μL per well, and centrifuged for later use. The antibody to be tested was subjected to 3-fold dilution with PBS, starting from 200 nM, and the diluted sample was added to the 96-well flow plate with cells, 100 μL/well, and incubated at 25° C. for 60 min. Biotin-h.EGF was diluted to 100 nM with PBS, added to the 96-well flow plate with cells, 100 μL/well, and incubated at 25° C. for 60 min. then washed twice with PBS. Streptavidin-FITC (purchased from Jackson) was diluted 100 times with PBS and added to the plate, 100 µL/well, incubated at 4° C. for 30 min, and washed twice with PBS. 100 μL/well of PBS was added to resuspend the cells, then the cells were detected on a CytoFlex (Beckman) flow cytometer, and the corresponding MFI was calculated.

A375/H1975/HCC827 cells = assay: ADCC induction, CD16a-NFAT-Luc Jurkat reporter gene cells; type: cell-based, human; settings: A375, H1975, HCC827 target cells, CD16a-NFAT-Luc Jurkat effector cells, 6 h, FIG. 9
Excerpt: A375 cells were human malignant melanoma cells and purchased from Addexbio, which were capable of expressing EGFR and c-Met receptors. H1975 cells were human lung adenocarcinoma cells and purchased from Addexbio, which were capable of highly expressing EGFR and c-Met receptors. HCC827 cells were human non-small cell lung cancer cells and purchased from the Cell Bank of the Chinese Academy of Sciences, which were capable of highly expressing EGFR and c-Met receptors. […]

Rybrevant: commercially available EGFRxc-Met bispecific antibody, purchased from Johnson & Johnson, batch number LHS3G02 [reference compound]
TGI [1]: 67.9% | TGI [2]: 44.1%

anti-EGFR single-arm antibody: anti-EGFR single-arm antibody prepared based on the control antibody Amivantamab; heavy chain SEQ ID NO: 42, light chain SEQ ID NO: 4 [reference compound]
blocking of HGF-induced migration of HepG2 cells (HepG2 cells): could not block

C=CC(=O)Nc1cc(Nc2nccc(-c3cn(C)c4ccccc34)n2)c(OC)cc1N(C)CCN(C)C [Osimertinib]
TGI [2]: 38.9%

anti-MET single-arm antibody: anti-c-Met single-arm molecule constructed based on the control molecule Amivantamab; heavy chain SEQ ID NO: 43, light chain SEQ ID NO: 8 [reference compound]
blocking interaction between EGF and EGFR [3]: could not block

Amivantamab analog: control anti-EGFRxcMet bispecific antibody with anti-cMet arm of WO2011/110642A2, obtained in normal host cells [reference compound]
ADCC effect (A375/H1975/HCC827 cells): induced ADCC effects
